Data taken from patent publication US6891057B2, “Compounds for generating chemiluminescence with a peroxidase” (Lumigen, Inc., priority 1997, dated 2005).

Biological target: T1, horseradish peroxidase (HRP) (Armoracia rusticana, UniProt P00433)
T1 sequence (P00433 31-338 limits assumed): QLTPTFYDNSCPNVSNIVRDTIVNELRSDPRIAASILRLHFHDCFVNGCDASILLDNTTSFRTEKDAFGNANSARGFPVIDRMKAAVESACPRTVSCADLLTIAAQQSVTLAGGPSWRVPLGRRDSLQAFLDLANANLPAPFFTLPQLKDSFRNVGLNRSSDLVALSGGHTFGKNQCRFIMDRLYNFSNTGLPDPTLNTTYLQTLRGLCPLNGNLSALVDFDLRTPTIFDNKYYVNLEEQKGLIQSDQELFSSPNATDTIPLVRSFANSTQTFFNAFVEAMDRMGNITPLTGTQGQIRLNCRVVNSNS
Assay: Chemiluminescent detection of HRP: reaction of compound with peroxidase and peroxide
Format: biochemical
Conditions: for time to maximum chemiluminescence intensity: 0.01 M tris pH 8.0, 0.5 mM urea peroxide, 0.1 mM p-phenylphenol, 1 mM EDTA, 0.025% Tween 20, 5×10^−5 M acridan, HRP 3.5×10^−16 to 1.4×10^−15 moles
Experimental: FIG. 1 is a graph relating the amount of HRP to the chemiluminescence intensity at 15 min emitted by 100 μL of a reagent described in Example 20 containing acridan phosphate 5 triggered at room temperature. Chemiluminescence emission was initiated by addition of 10 μL of solutions of HRP containing between 1.4×10^−15 and 1.4×10^−19 moles of enzyme to 100 μL of the reagent comprising 0.055 M tris buffer, pH 8.6, 0.25 mM urea peroxide, 0.05 mM p-phenylphenol, 0.5 mM EDTA, 0.0125% Tween 20 and 3.3×10^−4 M acridan 5 in the wells of a black microplate. The term S-B refers to the chemiluminescence signal (S) in Relative Light Units (RLU) in the presence of HRP corrected for background chemiluminescence (B) in the absence of HRP.
FIG. 2 is a graph relating the amount of HRP to the chemiluminescence intensity at 15 min emitted by 100 μL of a reagent described in Example 21 containing acridan phosphate 13 triggered at room temperature. Chemiluminescence emission was initiated by addition of 10 μL of solutions of HRP containing between 1.4×10^−15 and 1.4×10^−19 moles of enzyme to 100 μL of a reagent comprising 0.055 M tris buffer, pH 8.6, 0.25 mM urea peroxide, 0.05 mM p-phenylphenol, 0.5 mM EDTA, 0.0125% Tween 20 and 3.3×10^−4 M acridan 13 in a black microplate.
FIG. 3 is a graph showing the time profile of chemiluminescence resulting from reaction of 1.4×10^−15 moles of HRP at 25° C. with 100 μL of the reagent containing acridan 5 described in Example 20.
FIG. 4 is a graph relating the amount of HRP to the maximum chemiluminescence intensity at 2 min emitted by 100 μL of a reagent containing acridan 37 triggered at room temperature. Chemiluminescence emission was initiated by addition of 10 μL of solutions of HRP containing between 1.4×10^−14 to 1.4×10^−19 moles to 100 μL of reagent composition comprising 0.01 M tris buffer, pH 8.0, 0.5 mM urea peroxide, 0.1 mM p-phenylphenol, 1 mM EDTA, 0.025% Tween 20 and 5×10^−5 M acridan 37.
FIG. 5 is a graph showing the time profile of chemiluminescence resulting from reaction of 1.4×10^−15 moles of HRP at 25° C. with 40 μL of a reagent comprising 0.01 M tris buffer, pH 8.0, 0.5 mM urea peroxide, 0.1 mM p-phenylphenol, 1 mM EDTA, 0.025% Tween 20 and 5×10^−5 M acridan 38.
FIG. 6 is a graph relating the amount of HRP to the maximum chemiluminescence intensity at 30 min emitted by 100 μL of a reagent containing acridan 39 triggered at room temperature. Chemiluminescence emission was initiated by addition of 10 μL of solutions of HRP containing between 1.4×10^−15 to 1.4×10^−20 moles to 100 μL of reagent composition comprising 0.01 M tris buffer, pH 8.0, 0.5 mM urea peroxide, 0.1 mM p-phenylphenol, 1 mM EDTA, 0.025% Tween 20 and 5×10^−5 M acridan 39.
FIG. 7 is a graph showing the time profile of chemiluminescence resulting from reaction of 3.5×10^−16 moles of HRP at 25° C. with 100 μL of a reagent comprising 0.01 M tris buffer, pH 8.0, 0.5 mM urea peroxide, 0.1 mM p-phenylphenol, 1 mM EDTA, 0.025% Tween 20 and 5×10^−5 M acridan 50.
FIG. 8 is a graph relating the amount of HRP to the maximum chemiluminescence intensity at 15 min emitted by 100 μL of a reagent containing acridan 43 triggered at room temperature. Chemiluminescence emission was initiated by addition of 10 μL of solutions of HRP containing between 1.4×10^−15 to 1.4×10^−19 moles to 100 μL of a reagent composition comprising 0.055 M tris buffer, pH 8.6, 0.25 mM urea peroxide, 0.05 mM p-phenylphenol, 0.5 mM EDTA, 0.0125% Tween 20, 1 mM CTAB and 6.6×10^−4 M acridan 43.
Reagent compositions comprising 0.055 M tris buffer, pH 8.6, 0.25 mM urea peroxide, 0.05 mM p-phenylphenol, 0.5 mM EDTA, 0.0125% Tween 20, 1 mM CTAB and 3.3×10^−4 M compound 46 alone or with 50 μM DBA were tested for production of chemiluminescence by reacting a 100 μL aliquot with 3.5×10^−15 moles of HRP. […]

| SMILES | production of chemiluminescence on reaction with a peroxidase and a peroxide | time to maximum chemiluminescence intensity | increase of light intensity when CTAB was included in the reaction mixture (reaction with a peroxidase and a peroxide, with vs without CTAB) |
| --- | --- | --- | --- |
| CCOP(=O)(OCC)OC(Sc1ccccc1)=C1c2ccccc2N(C)c2ccccc21 [Compound 38] | Light production ensued upon mixing | 1 min |  |
| CCOP(=O)(OCC)OC(Oc1ccccc1)=C1c2ccccc2N(C)c2ccccc21 [Compound 37] | Light production ensued upon mixing |  |  |
| C/C(=C(/OP(=O)([O-])[O-])Sc1ccccc1)c1ccc2cc([O-])ccc2c1.[Na+].[Na+].[Na+] [Compound 43] |  |  | increased more than ten-fold |
| COC(Sc1ccccc1)=C1c2ccccc2N(C)c2ccccc21 [Compound 50] | Light production ensued upon mixing | 7 min |  |
| CC(=O)OC(Sc1ccccc1)=C1c2ccccc2N(C)c2ccccc21 [Compound 40] | Light production ensued upon mixing | 7 min |  |
| CC(=O)OC(Oc1ccccc1)=C1c2ccccc2N(C)c2ccccc21 [Compound 39] | Light production ensued upon mixing | 30 min |  |
